From PubChem BioAssay (NCI)
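Cells were grown in 96-well plates and exposed to each compound for 48 hours at five concentrations; endpoints were interpolated linearly between bracketing concentrations, or set to the highest concentration if not reached. Definition used: TGI = concentration required for complete inhibition of growth.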

What was measured:
Assay in all cases: inhibition of tumour cell growth, NCI panel, 48 h
NCI-H226 lung = system: NCI-H226 lung
RXF 393 renal = system: RXF 393 renal
HOP-92 NSCLC = system: HOP-92 NSCLC
COLO 205 colon = system: COLO 205 colon
SK-MEL-28 melanoma = system: SK-MEL-28 melanoma
OVCAR-5 ovarian = system: OVCAR-5 ovarian
MOLT-4 leukemia = system: MOLT-4 leukemia
DLD-1 colon = system: DLD-1 colon
A549 NSCLC = system: A549 NSCLC
UACC-62 melanoma = system: UACC-62 melanoma
786-0 renal = system: 786-0 renal
SK-MEL-5 melanoma = system: SK-MEL-5 melanoma
SW-620 colon = system: SW-620 colon
SF-295 CNS = system: SF-295 CNS
OVCAR-3 ovarian = system: OVCAR-3 ovarian
K-562 leukemia = system: K-562 leukemia
SNB-19 CNS = system: SNB-19 CNS
CCRF-CEM leukemia = system: CCRF-CEM leukemia
A498 renal = system: A498 renal
SN12C renal = system: SN12C renal
ACHN renal = system: ACHN renal
TK-10 renal = system: TK-10 renal
M14 melanoma = system: M14 melanoma
MALME-3M melanoma = system: MALME-3M melanoma
LOX IMVI melanoma = system: LOX IMVI melanoma
NCI-H23 lung = system: NCI-H23 lung
SNB-78 CNS = system: SNB-78 CNS
HCC-2998 colon = system: HCC-2998 colon
IGROV1 ovarian = system: IGROV1 ovarian
HCT-15 colon = system: HCT-15 colon
NCI-H522 lung = system: NCI-H522 lung
SF-268 CNS = system: SF-268 CNS
EKVX NSCLC = system: EKVX NSCLC
KM12 colon = system: KM12 colon
UACC-257 melanoma = system: UACC-257 melanoma
LXFL 529 NSCLC = system: LXFL 529 NSCLC
U251 CNS = system: U251 CNS
OVCAR-8 ovarian = system: OVCAR-8 ovarian
DMS 273 small cell lung = system: DMS 273 small cell lung
OVCAR-4 ovarian = system: OVCAR-4 ovarian
XF 498 CNS = system: XF 498 CNS
HCT-116 colon = system: HCT-116 colon
NCI-H460 lung = system: NCI-H460 lung
M19-MEL melanoma = system: M19-MEL melanoma
SK-MEL-2 melanoma = system: SK-MEL-2 melanoma
SF-539 CNS = system: SF-539 CNS
DMS 114 small cell lung = system: DMS 114 small cell lung
KM20L2 colon = system: KM20L2 colon
HOP-18 NSCLC = system: HOP-18 NSCLC
UO-31 renal = system: UO-31 renal
HOP-62 NSCLC = system: HOP-62 NSCLC
SNB-75 CNS = system: SNB-75 CNS
SK-OV-3 ovarian = system: SK-OV-3 ovarian
HT29 colon = system: HT29 colon
RPMI-8226 leukemia = system: RPMI-8226 leukemia
CAKI-1 renal = system: CAKI-1 renal
HL-60(TB) leukemia = system: HL-60(TB) leukemia

COc1ccc2c(c1)[n+](=O)c(C(=O)C/C(=N/NC(=O)c1ccccc1O)C(=O)Nc1ccc(Cl)c(C(F)(F)F)c1)c(C)n2[O-]
TGI (NCI-H226 lung): > 100 µM | TGI (RXF 393 renal): > 100 µM | TGI (HOP-92 NSCLC): > 100 µM | TGI (COLO 205 colon): > 100 µM | TGI (SK-MEL-28 melanoma): > 100 µM | TGI (OVCAR-5 ovarian): > 100 µM | TGI (MOLT-4 leukemia): > 100 µM | TGI (DLD-1 colon): > 100 µM | TGI (A549 NSCLC): > 100 µM | TGI (UACC-62 melanoma): > 100 µM | TGI (786-0 renal): > 100 µM | TGI (SK-MEL-5 melanoma): > 100 µM | TGI (SW-620 colon): > 100 µM | TGI (SF-295 CNS): > 100 µM | TGI (OVCAR-3 ovarian): 87.1 µM | TGI (K-562 leukemia): > 100 µM | TGI (SNB-19 CNS): > 100 µM | TGI (CCRF-CEM leukemia): > 100 µM | TGI (A498 renal): > 100 µM | TGI (SN12C renal): > 100 µM | TGI (ACHN renal): > 100 µM | TGI (TK-10 renal): > 100 µM | TGI (M14 melanoma): > 100 µM | TGI (MALME-3M melanoma): > 100 µM | TGI (LOX IMVI melanoma): > 100 µM | TGI (NCI-H23 lung): > 100 µM | TGI (SNB-78 CNS): > 100 µM | TGI (HCC-2998 colon): > 100 µM | TGI (IGROV1 ovarian): > 100 µM | TGI (HCT-15 colon): > 100 µM | TGI (NCI-H522 lung): > 100 µM | TGI (SF-268 CNS): > 100 µM | TGI (EKVX NSCLC): > 100 µM | TGI (KM12 colon): > 100 µM | TGI (UACC-257 melanoma): > 100 µM | TGI (LXFL 529 NSCLC): > 100 µM | TGI (U251 CNS): > 100 µM | TGI (OVCAR-8 ovarian): > 100 µM | TGI (DMS 273 small cell lung): > 100 µM | TGI (OVCAR-4 ovarian): > 100 µM | TGI (XF 498 CNS): > 100 µM | TGI (HCT-116 colon): > 100 µM | TGI (NCI-H460 lung): > 100 µM | TGI (M19-MEL melanoma): > 100 µM | TGI (SK-MEL-2 melanoma): > 100 µM | TGI (SF-539 CNS): > 100 µM | TGI (DMS 114 small cell lung): > 100 µM | TGI (KM20L2 colon): > 100 µM | TGI (HOP-18 NSCLC): > 100 µM | TGI (UO-31 renal): 50.5 µM | TGI (HOP-62 NSCLC): > 100 µM | TGI (SNB-75 CNS): > 100 µM | TGI (SK-OV-3 ovarian): > 100 µM | TGI (HT29 colon): > 100 µM

Cn1c(=O)nc2n(-c3cc(Cl)ccc3Cl)c3ccccc3nc-2c1=O
TGI (NCI-H226 lung): 22 µM | TGI (RXF 393 renal): 34.1 µM | TGI (RPMI-8226 leukemia): 33.7 µM | TGI (COLO 205 colon): 6.43 µM | TGI (OVCAR-5 ovarian): 25.7 µM | TGI (MOLT-4 leukemia): 28.6 µM | TGI (DLD-1 colon): 16.6 µM | TGI (A549 NSCLC): 21.9 µM | TGI (UACC-62 melanoma): 3.38 µM | TGI (786-0 renal): 34.6 µM | TGI (SK-MEL-5 melanoma): 4.55 µM | TGI (SW-620 colon): 6.86 µM | TGI (SF-295 CNS): 21.2 µM | TGI (OVCAR-3 ovarian): 9.92 µM | TGI (K-562 leukemia): > 100 µM | TGI (SNB-19 CNS): 13.3 µM | TGI (CCRF-CEM leukemia): 21.3 µM | TGI (A498 renal): 35.7 µM | TGI (SN12C renal): 16.7 µM | TGI (ACHN renal): 13.6 µM | TGI (TK-10 renal): 30.4 µM | TGI (M14 melanoma): 15.2 µM | TGI (MALME-3M melanoma): 12.2 µM | TGI (NCI-H23 lung): 4.06 µM | TGI (CAKI-1 renal): 27.8 µM | TGI (SNB-78 CNS): 31.6 µM | TGI (HCC-2998 colon): 9.32 µM | TGI (IGROV1 ovarian): 29.7 µM | TGI (HCT-15 colon): 15.4 µM | TGI (NCI-H522 lung): 18.8 µM | TGI (SF-268 CNS): 30.7 µM | TGI (EKVX NSCLC): 13 µM | TGI (KM12 colon): 20.1 µM | TGI (UACC-257 melanoma): 5.2 µM | TGI (LXFL 529 NSCLC): 28.3 µM | TGI (U251 CNS): 20.4 µM | TGI (OVCAR-8 ovarian): 14.4 µM | TGI (DMS 273 small cell lung): 16.2 µM | TGI (OVCAR-4 ovarian): 17.8 µM | TGI (XF 498 CNS): 18.9 µM | TGI (HCT-116 colon): 16.2 µM | TGI (NCI-H460 lung): 13.4 µM | TGI (M19-MEL melanoma): 2.85 µM | TGI (SK-MEL-2 melanoma): 18.1 µM | TGI (SF-539 CNS): 19.5 µM | TGI (DMS 114 small cell lung): 4.92 µM | TGI (KM20L2 colon): 7.9 µM | TGI (HOP-18 NSCLC): 25.3 µM | TGI (UO-31 renal): 26.4 µM | TGI (HOP-62 NSCLC): 46.4 µM | TGI (SNB-75 CNS): 24.6 µM | TGI (SK-OV-3 ovarian): 91.9 µM | TGI (HT29 colon): 5.47 µM

CCn1c(=O)nc2n(-c3ccccc3)c3ccccc3nc-2c1=O
TGI (NCI-H226 lung): 63.8 µM | TGI (HOP-92 NSCLC): 62.4 µM | TGI (RPMI-8226 leukemia): > 100 µM | TGI (COLO 205 colon): 16 µM | TGI (SK-MEL-28 melanoma): > 100 µM | TGI (OVCAR-5 ovarian): 66.4 µM | TGI (MOLT-4 leukemia): 40.4 µM | TGI (DLD-1 colon): > 100 µM | TGI (A549 NSCLC): > 100 µM | TGI (UACC-62 melanoma): 31.9 µM | TGI (786-0 renal): > 100 µM | TGI (SK-MEL-5 melanoma): 22.8 µM | TGI (SW-620 colon): 86.5 µM | TGI (SF-295 CNS): > 100 µM | TGI (OVCAR-3 ovarian): 43.1 µM | TGI (K-562 leukemia): 61.2 µM | TGI (SNB-19 CNS): 76 µM | TGI (CCRF-CEM leukemia): 72.3 µM | TGI (A498 renal): > 100 µM | TGI (SN12C renal): 64.8 µM | TGI (ACHN renal): 68.7 µM | TGI (TK-10 renal): > 100 µM | TGI (M14 melanoma): 35 µM | TGI (MALME-3M melanoma): 31.7 µM | TGI (NCI-H23 lung): > 100 µM | TGI (CAKI-1 renal): > 100 µM | TGI (SNB-78 CNS): > 100 µM | TGI (HCC-2998 colon): 94 µM | TGI (IGROV1 ovarian): 74.2 µM | TGI (HCT-15 colon): 65.4 µM | TGI (NCI-H522 lung): > 100 µM | TGI (SF-268 CNS): 85.1 µM | TGI (EKVX NSCLC): > 100 µM | TGI (KM12 colon): > 100 µM | TGI (UACC-257 melanoma): 38.7 µM | TGI (LXFL 529 NSCLC): > 100 µM | TGI (U251 CNS): 75.2 µM | TGI (OVCAR-8 ovarian): 67.9 µM | TGI (DMS 273 small cell lung): 34.7 µM | TGI (OVCAR-4 ovarian): 25.9 µM | TGI (XF 498 CNS): 34.5 µM | TGI (NCI-H460 lung): > 100 µM | TGI (M19-MEL melanoma): 25.2 µM | TGI (HL-60(TB) leukemia): 38.5 µM | TGI (SK-MEL-2 melanoma): 76.3 µM | TGI (SF-539 CNS): 38.8 µM | TGI (DMS 114 small cell lung): 30.3 µM | TGI (KM20L2 colon): 85.4 µM | TGI (HOP-18 NSCLC): > 100 µM | TGI (UO-31 renal): > 100 µM | TGI (HOP-62 NSCLC): > 100 µM | TGI (SNB-75 CNS): > 100 µM | TGI (SK-OV-3 ovarian): > 100 µM
